Test [1] deals with human P2X3 receptor (Homo sapiens (Human), UniProt P56373). Description: Intracellular calcium measurement (FLIPR, Fluo-4) of antagonist activity at human P2X3 receptors. The test is classed as cell-based. The settings on record: read-out: hP2X3 IC50. The essentials: (§1)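 Antagonism quantified from peak calcium fluorescence (Fluo-4, FLIPR, 90 sec read) evoked by EC80 α,β-Me-ATP, after a 30 min, 37° C. compound pretreatment in 1% DMSO. Human P2X3- or P2X2/3-expressing cells used; triplicate means fitted for IC50, percent maximal inhibition and Hill coefficient.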
For orientation: A change in cytosolic calcium serves as a functional read-out for many receptors and channels.

Test [2] has as its target human P2X2/3 receptor (Homo sapiens (Human), UniProt P56373+Q9UBL9). Kind of test: Intracellular calcium measurement (FLIPR, Fluo-4) of antagonist activity at human P2X2/3 receptors. The format is cell-based. The essentials: as §1
Where [3] appears, read: human P2X3, FLIPR calcium assay, agonist α,β-Me-ATP.
[4] abbreviates: human P2X2/3, FLIPR calcium assay, agonist α,β-Me-ATP, read-out: hP2X2/3 IC50.

Where two headings read alike, the source gives them in different places.

These results are taken from patent US10174016B2 (BAYER AKTIENGESELLSCHAFT, priority 2014, dated 2019).

Chain of human P2X2/3 receptor (P56373 whole entry): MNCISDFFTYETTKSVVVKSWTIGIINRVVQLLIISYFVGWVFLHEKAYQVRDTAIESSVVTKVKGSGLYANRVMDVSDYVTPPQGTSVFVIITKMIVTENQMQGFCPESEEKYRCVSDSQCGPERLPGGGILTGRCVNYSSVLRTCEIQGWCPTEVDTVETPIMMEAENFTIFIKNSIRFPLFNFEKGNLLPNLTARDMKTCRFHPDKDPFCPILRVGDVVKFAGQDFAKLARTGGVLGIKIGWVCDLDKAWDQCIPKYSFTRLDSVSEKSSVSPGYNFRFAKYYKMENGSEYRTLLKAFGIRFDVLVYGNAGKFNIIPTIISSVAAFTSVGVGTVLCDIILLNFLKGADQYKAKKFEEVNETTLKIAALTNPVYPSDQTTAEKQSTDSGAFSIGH
Chain of human P2X2/3 receptor (Q9UBL9 whole entry): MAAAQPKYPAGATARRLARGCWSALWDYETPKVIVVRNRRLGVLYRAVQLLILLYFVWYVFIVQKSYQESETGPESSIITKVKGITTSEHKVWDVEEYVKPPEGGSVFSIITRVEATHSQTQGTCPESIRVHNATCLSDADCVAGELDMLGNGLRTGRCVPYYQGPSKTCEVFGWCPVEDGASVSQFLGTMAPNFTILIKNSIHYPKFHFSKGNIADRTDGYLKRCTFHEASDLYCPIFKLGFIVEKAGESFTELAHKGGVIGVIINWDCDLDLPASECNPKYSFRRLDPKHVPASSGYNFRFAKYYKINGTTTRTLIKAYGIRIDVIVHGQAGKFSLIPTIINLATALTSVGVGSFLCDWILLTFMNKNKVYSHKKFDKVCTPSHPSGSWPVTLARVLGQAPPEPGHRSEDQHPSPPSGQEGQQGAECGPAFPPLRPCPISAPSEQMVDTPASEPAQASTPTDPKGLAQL
Chain of human P2X3 receptor (P56373 whole entry): as the sequence (P56373 whole entry) above

In the case of `Cc1cnc(-c2cc(OC[C@H]3CCCN3C)cc(C(=O)N[C@H](C)c3cnc(C(F)(F)F)nc3)c2)s1` [Example 379, 3-{[(2R)-1-methylpyrrolidin-2-yl]methoxy}-5 (5-methyl-1,3-thiazol-2-yl)-N-{(1R)-1-[2-(trifluoromethyl)pyrimidin-5-yl]ethyl}benzamide], the IC50 in test [1] (setting [3]) was 42 nM; in test [2] (setting [4]), 2750 nM.

As for `C#CCOc1cc(C(=O)N[C@H](C)c2ccc(C(F)(F)F)nn2)cc(-c2ncc(C)s2)c1` [Example 38, 3-(5-Methyl-1,3-thiazol-2-yl)-5-(prop-2-yn-1-yloxy)-N-[(1R)-1-[6-(trifluoromethyl)pyridazin-3-yl]ethyl]benzamide], the IC50 in test [1] (setting [3]) was 55 nM; in test [2] (setting [4]) it was 1140 nM.

For the molecule `Cc1ccc([C@@H](C)NC(=O)c2cc(O[C@@H]3CCOC3)cc(-c3ncc(Cl)s3)c2)nn1` [Example 317, 3-(5-chloro-1,3-thiazol-2-yl)-N-[(1R)-1-(6-methylpyridazin-3-yl)ethyl]-5-[(3R)-tetrahydrofuran-3-yloxy]benzamide], the IC50 in test [1] (setting [3]) worked out at 45 nM; in test [2] (setting [4]), 952 nM.

On to `Cc1cnc([C@@H](C)NC(=O)c2cc(OCC3CCOCC3)cc(-c3ncc(C)s3)c2)cn1` [Example 94, N-[(1R)-1-(5-Methylpyrazin-2-yl)ethyl]-3-(5-methyl-1,3-thiazol-2-yl)-5-(tetrahydro-2H-pyran-4-ylmethoxy)benzamide], for which the values for the IC50 in test [1] (setting [3]) and in test [2] (setting [4]) were 7 nM and 132 nM, respectively.

Turning to `Cc1cnc(-c2cc(OC3CC4(C3)CN(C)C4)cc(C(=O)N[C@H](C)c3cnc(C(F)(F)F)nc3)c2)s1` [Example 214, 3-[(2-methyl-2-azaspiro [3.3]hept-6-yl)oxy]-5-(5-methyl-1,3-thiazol-2-yl)-N-{(1R)-1-[2-(trifluoromethyl)pyrimidin-5-yl]ethyl} benzamide], the IC50 was determined as 47 nM in test [1] (setting [3]) and 3390 nM in test [2] (setting [4]).

On to `Cc1ccc([C@@H](C)NC(=O)c2cc(O[C@H]3CCOC3)cc(-c3ncc(C(C)C)s3)c2)nn1` [Example 255, N-[(1R)-1-(6-methylpyridazin-3-yl)ethyl]-3-[5-(propan-2-yl)-1,3-thiazol-2-yl]-5-[(3S)-tetrahydrofuran-3-yloxy]benzamide], for which the IC50 in test [1] (setting [3]) was found to be 254 nM; in test [2] (setting [4]), 449 nM.

On to `CCc1cnc(-c2cc(OC[C@H]3CCOC3)cc(C(=O)N[C@H](C)c3cnc(C)cn3)c2)s1` [Example 277, 3-(5-ethyl-1,3-thiazol-2-yl)-N-[(1R)-1-(5-methylpyrazin-2-yl)ethyl]-5-[(3S)-tetrahydrofuran-3-ylmethoxy]benzamide], for which the IC50 in test [1] (setting [3]) is 6 nM; in test [2] (setting [4]), 96 nM.

`CCc1cnc(-c2cc(OC[C@@H]3CCCO3)cc(C(=O)N[C@H](C)c3cnc(C(F)(F)F)nc3)c2)s1` [Example 284, 3-(5-ethyl-1,3-thiazol-2-yl)-5-[(2S)-tetrahydrofuran-2-ylmethoxy]-N-{(1R)-1-[2-(trifluoromethyl)pyrimidin-5-yl]ethyl}benzamide]: the IC50 in test [1] (setting [3]) stood at 4 nM; in test [2] (setting [4]) it was 57 nM.

In the case of `Cc1cnc(-c2cc(OC[C@@H]3CN(C)CCO3)cc(C(=O)N[C@H](C)c3cnc(C(F)(F)F)nc3)c2)s1` [Example 351, 3-{[(2S)-4-methylmorpholin-2-yl]methoxy}-5-(5-methyl-1,3-thiazol-2-yl)-N-{(1R)-1-[2-(trifluoromethyl)pyrimidin-5-yl]ethyl}benzamide], the IC50 in test [1] (setting [3]) was found to be 16 nM; in test [2] (setting [4]), 690 nM.

For `C[C@@H](NC(=O)c1cc(OC[C@H]2CCCO2)cc(-c2ncc(C3CCC3)s2)c1)c1cnc(C(F)(F)F)nc1` [Example 272, 3-(5-cyclobutyl-1,3-thiazol-2-yl)-5-[(2R)-tetrahydrofuran-2-ylmethoxy]-N-{(1R)-1-[2-(trifluoromethyl)pyrimidin-5-yl]ethyl}benzamide], the IC50 in test [1] worked out at 19 nM; in test [2] (setting [4]) it was 128 nM.

For the molecule `Cc1ccc(CNC(=O)c2cc(O[C@@H]3CCOC3)cc(-c3ncc(C)s3)c2)nn1` [Example 17, N-[(6-methylpyridazin-3-yl)methyl]-3-(5-methyl-1,3-thiazol-2-yl)-5-[(3R)-tetrahydrofuran-3-yloxy]benzamide], the IC50 in test [1] (setting [3]) came to 35 nM; in test [2] (setting [4]) it was 1010 nM.

For the molecule `Cc1cnc(-c2cc(OC[C@@H]3CN(C)CCO3)cc(C(=O)NCc3cnc(C(F)(F)F)nc3)c2)s1` [Example 368, 3-{[(2S)-4-methylmorpholin-2-yl]methoxy}-5-(5-methyl-1,3-thiazol-2-yl)-N-{[2-(trifluoromethyl)pyrimidin-5-yl]methyl}benzamide], the IC50 in test [1] (setting [3]) was 84 nM; in test [2] (setting [4]), 1090 nM.

On to `Cc1cnc(-c2cc(OC3COC3)cc(C(=O)NC(C)c3nnc(C(F)(F)F)s3)c2)s1` (single isomer, unassigned) [Example 194, 3-(5-Methyl-1,3-thiazol-2-yl)-5-(oxetan-3-yloxy)-N-{1-[5-(trifluoromethyl)-1,3,4-thiadiazol-2-yl]ethyl}benzamide], for which the IC50 in test [1] (setting [3]) is 46 nM; in test [2] (setting [4]), 579 nM.

Consider `CCN1CCO[C@H](COc2cc(C(=O)N[C@H](C)c3cnc(C(F)(F)F)nc3)cc(-c3ncc(C)s3)c2)C1` [Example 411, 3-{[(2S)-4-ethylmorpholin-2-yl]methoxy}-5-(5-methyl-1,3-thiazol-2-yl)-N-{(1R)-1-[2-(trifluoromethyl)pyrimidin-5-yl]ethyl}benzamide], for which the figures for the IC50 in test [1] (setting [3]) and in test [2] (setting [4]) were 20 nM and 697 nM, respectively.

Take `Cc1cnc(-c2cc(OCC3CCOCC3)cc(C(=O)NC(C)c3ncc(F)cc3Cl)c2)s1` (centres unmarked) [Example 96, N-[1-(3-Chloro-5-fluoropyridin-2-yl)ethyl]-3-(5-methyl-1,3-thiazol-2-yl)-5-(tetrahydro-2H-pyran-4-ylmethoxy)benzamide]: the IC50 in test [1] (setting [3]) came out at 18 nM; in test [2] (setting [4]), 1080 nM.

`Cc1cnc(-c2cc(O[C@@H]3CCOC3)cc(C(=O)NC(C)c3ncc(Cl)cc3F)c2)s1` (stereo partly drawn) [Example 14, N-[1-(5-chloro-3-fluoropyridin-2-yl)ethyl]-3-(5-methyl-1,3-thiazol-2-yl)-5-[(3R)-tetrahydrofuran-3-yloxy]benzamide]: the IC50 in test [1] (setting [3]) was determined as 8 nM; in test [2] (setting [4]), 88 nM.

On to `CCc1cnc(-c2cc(OC3CCOCC3)cc(C(=O)N[C@H](C)c3ccc(C)nn3)c2)s1` [Example 128, 3-(5-Ethyl-1,3-thiazol-2-yl)-N-[(1R)-1-(6-methylpyridazin-3-yl)ethyl]-5-(tetrahydro-2H-pyran-4-yloxy)benzamide], for which the IC50 came to 10 nM in test [1] (setting [3]) and 91 nM in test [2] (setting [4]).

For `COC(=O)N1CC2COCC(C1)C2Oc1cc(C(=O)N[C@H](C)c2cnc(C(F)(F)F)nc2)cc(-c2ncc(C)s2)c1` (stereo partly drawn) [Example 345, methyl 9-[3-(5-methyl-1,3-thiazol-2-yl)-5-({(1R)-1-[2-(trifluoromethyl)pyrimidin-5-yl]ethyl}carbamoyl)phenoxy]-3-oxa-7-azabicycle[3.3.1]nonane-7-carboxylate], the results for the IC50 in test [1] (setting [3]) and in test [2] (setting [4]) were 7 nM and 99 nM, respectively.

Turning to `Cc1cnc(-c2cc(O[C@@H]3CN4CCC3CC4)cc(C(=O)N[C@H](C)c3ccc(C(F)(F)F)nc3)c2)s1` [Example 175, 3-[(3S)-1-azabicyclo[2.2.2]oct-3-yloxy]-5-(5-methyl-1,3-thiazol-2-yl)-N-{(1R)-1-[6-(trifluoromethyl)pyridin-3-yl]ethyl}benzamide], the figures for the IC50 in test [1] and in test [2] (hP2X2/3 IC50 (nM)) were 23 nM and 1270 nM, respectively.

On to `Cc1ccc([C@@H](C)NC(=O)c2cc(OC[C@@H]3CCOC3)cc(-c3ncc(C)s3)c2)nn1` [Example 77, N-[(1R)-1-(6-Methylpyridazin-3-yl)ethyl]-3-(5-methyl-1,3-thiazol-2-yl)-5-[(3R)-tetrahydrofuran-3-ylmethoxy]benzomide], for which the figures for the IC50 in test [1] (setting [3]) and in test [2] (setting [4]) were 10 nM and 183 nM, respectively.

Regarding `C#CCOc1cc(C(=O)N[C@H](C)c2ccc(C)nc2)cc(-c2ncc(C)s2)c1` [Example 33, N-[(1R)-1-(6-Methylpyridin-3-yl)ethyl]-3-(5-methyl-1,3-thiazol-2-yl)-5-(prop-2-yn-1-yloxy)benzamide], the IC50 is 29 nM in test [1] (setting [3]) and 912 nM in test [2] (setting [4]).

Take `Cc1cnc(-c2cc(OC3CCNCC3)cc(C(=O)N[C@H](C)c3ccc(C(F)(F)F)nn3)c2)s1` [Example 201, 3-(5-methyl-1,3-thiazol-2-yl)-5-(piperidin-4-yloxy)-N-{(1R)-1-[6-(trifluoromethyl)pyridazin-3-yl]ethyl}benzamide]: the IC50 came out at 16 nM in test [1] (setting [3]) and 1850 nM in test [2] (setting [4]).

Turning to `Cc1cnc(-c2cc(O[C@H]3CN4CCC3CC4)cc(C(=O)N[C@H](C)c3cnc(C(F)(F)F)nc3)c2)s1` [Example 168, 3-[(3R)-1-azabicyclo[2.2.2]oct-3-yloxy]-5-(5-methyl-1,3-thiazol-2-yl)-N-{(1R)-1-[2-(trifluoromethyl)pyrimidin-5-yl]ethyl}benzamide], the IC50 turned out to be 19 nM in test [1] and 1600 nM in test [2] (hP2X2/3 IC50 (nM)).

`Cc1ccc([C@@H](C)NC(=O)c2cc(OC[C@@H]3CCCO3)cc(-c3ncc(C(C)C)s3)c2)nn1` [Example 288, N-[(1R)-1-(6-methylpyridazin-3-yl)ethyl]-3-[5-(propan-2-yl)-1,3-thiazol-2-yl]-5-[(2S)-tetrahydrofuran-2-ylmethoxy]benzamide]: the IC50 in test [1] (setting [3]) came to 150 nM; in test [2] (setting [4]) it was 1310 nM.

In the case of `Cc1cnc(-c2cc(OC[C@H]3COCCN3C)cc(C(=O)N[C@H](C)c3ccc(C(F)(F)F)nc3)c2)s1` [Example 363, 3-{[(3R)-4-methylmorpholin-3-yl]methoxy}-5-(5-methyl-1,3-thiazol-2-yl)-N-{(1R)-1-[6-(trifluoromethyl)pyridin-3-yl]ethyl}benzamide], the IC50 in test [1] came out at 12 nM; in test [2] (setting [4]), 717 nM.
